Source: US20230192705A1, “SHP2 INHIBITORS, COMPOSITIONS AND USES THEREOF” (Betta Pharmaceuticals Co., Ltd, priority 2020, published 2023)
Where two headings read alike, the source gives them in different places.

Tests used:
[1] = tested on: lung cancer NCI-H358 cell; assay: Cell proliferation assay (CellTiter-Glo), NCI-H358; assay type: cell-based; conditions: Homo sapiens, NCI-H358, 96 hrs, CTG, read-out: Compound on NCI-H358 cell IC50
Experimental: (§1) The effects of the compounds on the proliferation of leukemia MV-4-11 cell and lung cancer NCI-H358 cell were evaluated by in vitro cell test. The assay used in this study was the CELL TITER-GLO (CTG) luminescence assay, which can detect the number of living cells by quantitative determination of ATP. Because ATP is involved in a variety of enzymatic reactions in vivo and is an indicator of the metabolism of living cells, its content can directly reflects the number and state of cells. During the experiment, Celltiter-Glo™ reagent was added to the cell culture medium to measure the luminescence value. The luminescence value was proportional to the amount of ATP, which in turn was positively correlated with the number of living cells. Therefore, ATP content can be used to detect cell viability.
A bottle of NCI-H358 cells in logarithmic growth phase was taken, the cells were digested and resuspend, counted, and then the cell density was adjusted. After that, the cells were inoculated into a 96-well Ultra-Low Attachment Microplate (Corning #3474), 2000 cells were inoculated in each well, and the well plate was placed in an incubator at 37° C. and 5% CO2, and the compounds of the invention were added for conducting.
(§2) An appropriate amount of the compound of the invention was taken for cell treatment, and the final concentration of the compound from high to low was 1000 nM, 333.3 nM, 111.1 nM, 37.04 nM, 12.35 nM, 4.115 nM, 1.372 nm, 0.4572 nM, 0.1524 nM, 0 nM, respectively. The orifice plate was cultured in an incubator at 37° C. and 5% CO2. Only adding medium without adding cell hole was set as blank group. Compound concentration of 0 nM group was zero control group.
NCI-H358 cells were cultured for 96 hrs, then 50 μL CellTiter-Glo® Luminescent cell viability assay solution was added to each well, and the cells were gently shaken for 2 mins, and incubated at room temperature for 10 mins. The cell reaction system was transferred to 96-well Microplate (Corning #3917). The detection values of each well were read on the multi-functional microplate reader.
(§3) The inhibition rate is calculated according to the luminous value reading,
(§4) Inhibition rate %=(1−(administration group value−blank group value)/(control group value−blank group value)*100
(§5) The log (inhibitor) vs. response variable slope of GraphPad Prism was used to fit the dose-response curve and calculate the IC50 of compounds inhibiting cell proliferation.

SHP2 = target: T1, SHP2 (Homo sapiens, UniProt Q06124); assay: SHP2 allosteric inhibitor enzyme activity assay (DiFMUP fluorescence); assay type: biochemical; conditions: class symbols
T1 sequence (Q06124 1-593): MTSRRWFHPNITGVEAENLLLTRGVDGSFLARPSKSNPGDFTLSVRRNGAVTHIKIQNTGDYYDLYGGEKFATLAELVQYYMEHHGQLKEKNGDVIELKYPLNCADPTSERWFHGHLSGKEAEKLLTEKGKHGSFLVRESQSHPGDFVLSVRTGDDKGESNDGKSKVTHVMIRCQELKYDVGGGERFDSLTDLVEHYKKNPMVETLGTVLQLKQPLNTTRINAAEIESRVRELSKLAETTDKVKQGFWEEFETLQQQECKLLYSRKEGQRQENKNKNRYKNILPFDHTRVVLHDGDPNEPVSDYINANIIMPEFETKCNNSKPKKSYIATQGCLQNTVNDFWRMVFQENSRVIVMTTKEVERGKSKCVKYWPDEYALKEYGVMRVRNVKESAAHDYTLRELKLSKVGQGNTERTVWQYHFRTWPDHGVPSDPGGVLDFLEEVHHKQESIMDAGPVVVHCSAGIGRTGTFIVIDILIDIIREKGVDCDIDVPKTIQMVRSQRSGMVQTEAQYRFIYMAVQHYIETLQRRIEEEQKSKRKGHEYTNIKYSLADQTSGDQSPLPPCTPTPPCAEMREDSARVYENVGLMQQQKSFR
Procedure, shortened: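 SHP2 activated by 0.5 μM IRS1_pY1172(dPEG8)pY1222 peptide, 0.2 ng enzyme per well, 1 h at room temperature with compound (1 μM top, 3-fold series), then DiFMUP substrate 1 h. Buffer: 60 mM HEPES, 75 mM NaCl, 75 mM KCl, 0.05% BRIJ-35, 1 mM EDTA, 5 mM DTT. Fluorescence ex 340/em 450 nm; IC50 by variable-slope fit.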

leukemia MV-4-11 cell = assay: Cell proliferation assay (CellTiter-Glo), MV-4-11; assay type: cell-based; conditions: Homo sapiens, MV4-11, MV-4-11, 120 hrs, CTG, read-out: Compound on MV-4-11 cell IC50
Experimental: as §1
A bottle of MV-4-11 cells in logarithmic growth phase was taken, the cells were collected, centrifuged, resuspend, counted, and then inoculated into 96-well Microplate (Corning #3917), with 4000 cells inoculated in each well. The plates were placed in an incubator at 37° C. and 5% CO2 for 24 hrs culture, and the compounds of the invention were added for conducting.
as §2
After cultured for 120 hrs, MV-4-11 cells were added with 50 μL CellTiter-Glo® Luminescent cell viability assay solution in each well, gently shaken for 2 mins, and incubated at room temperature for 10 mins. The detection values of each well were read on the multi-functional microplate reader.
as §3, §4, §5

Row | IC50 (SHP2) [nM] | SMILES | other results
1 | ≤ 20 | C#Cc1cccc(C2(c3n[nH]c4nc(N5CCC6(CC5)Cc5ccccc5[C@H]6N)[nH]c(=O)c34)CC2)c1 [Example 222, (S)-6-(1-amino-1,3-dihydrospiro[indene-2,4′-piperidin]-1′-yl)-3-(1-(3-ethynylphenyl)cyclopropyl)-1,5-dihydro-4H-pyrazolo[3,4-d]pyrimidin-4-one] | IC50 ([1]; class symbols): ≤ 20 nM; IC50 (leukemia MV-4-11 cell; class symbols): ≤ 20 nM
2 | ≤ 20 | CC1(C)C=C(c2n[nH]c3nc(N4CCC5(CC4)Cc4ccccc4[C@H]5N)[nH]c(=O)c23)c2ccc(C(F)(F)F)nc2C1 [Example 144, (S)-6-(1-amino-1,3-dihydrospiro[indene-2,4′-piperidin]-1′-yl)-3-(7,7-dimethyl-2-(trifluoromethyl)-7,8-dihydroquinolin-5-yl)-1,5-dihydro-4H-pyrazolo[3,4-d]pyrimidin-4-one] | IC50 ([1]; class symbols): 20 to 60 nM; IC50 (leukemia MV-4-11 cell; class symbols): 20 to 60 nM
3 | ≤ 20 | CC(=O)c1cccc(C2(c3n[nH]c4nc(N5CCC6(CC5)Cc5ccccc5[C@H]6N)[nH]c(=O)c34)CC2)c1 [Example 223, (S)-3-(1-(3-acetylphenyl)cyclopropyl)-6-(1-amino-1,3-dihydrospiro[indene-2,4′-piperidin]-1′-yl)-1,5-dihydro-4H-pyrazolo[3,4-d]pyrimidin-4-one] | IC50 ([1]; numeric values): 11 nM; IC50 (leukemia MV-4-11 cell; numeric values): 2.8 nM
4 | ≤ 20 | CNc1ncc2c(n1)CC(C)(C)C=C2c1n[nH]c2nc(N3CCC4(CC3)Cc3ccccc3[C@H]4N)[nH]c(=O)c12 [Example 149, (S)-6-(1-amino-1,3-dihydrospiro[indene-2,4′-piperidin]-1′-yl)-3-(7,7-dimethyl-2-(methylamino)-7,8-dihydroquinazolin-5-yl)-1,5-dihydro-4H-pyrazolo[3,4-d]pyrimidin-4-one] | –
5 | 20 to 60 | N[C@@H]1c2ccccc2CC12CCN(c1nc3[nH]nc(C4=CCCc5nc(C6CC6)cc(C(F)(F)F)c54)c3c(=O)[nH]1)CC2 [Example 141, (S)-6-(1-amino-1,3-dihydrospiro[indene-2,4′-piperidin]-1′-yl)-3-(2-cyclopropyl-4-(trifluoromethyl)-7,8-dihydroquinolin-5-yl)-1,5-dihydro-4H-pyrazolo[3,4-d]pyrimidin-4-one] | –
6 | 20 to 60 | CC1(C)C=C(c2n[nH]c3nc(N4CCC5(CC4)Cc4ccccc4[C@H]5N)[nH]c(=O)c23)c2sc(N)nc2C1 [Example 159, (S)-6-(1-amino-1,3-dihydrospiro[indene-2,4′-piperidin]-1′-yl)-3-(2-amino-5,5-dimethyl-4,5-dihydrobenzo[d]thiazol-7-yl)-1,5-dihydro-4H-pyrazolo[3,4-d]pyrimidin-4-one] | –
7 | ≤ 20 | Cc1cc2c(nn1)CC(C)(C)C=C2c1n[nH]c2nc(N3CCC4(CC3)Cc3ccccc3[C@H]4N)[nH]c(=O)c12 [Example 164, (S)-6-(1-amino-1,3-dihydrospiro[indene-2,4′-piperidin]-1′-yl)-3-(3,7,7-trimethyl-7,8-dihydrocinnolin-5-yl)-1,5-dihydro-4H-pyrazolo[3,4-d]pyrimidin-4-one] | –
8 | ≤ 20 | N[C@@H]1c2ccccc2CC12CCN(c1nc3[nH]nc(C4(c5cccc(C6CC6)c5)CC4)c3c(=O)[nH]1)CC2 [Example 218, (S)-6-(1-amino-1,3-dihydrospiro[indene-2,4′-piperidin]-1′-yl)-3-(1-(3-cyclopropylphenyl)cyclopropyl)-1,5-dihydro-4H-pyrazolo[3,4-d]pyrimidin-4-one] | –
9 | > 60 | C[C@@H]1OCC2(CCN(c3ncc(C4(c5ccccc5)CC4)nc3CO)CC2)[C@@H]1N [Example 260, (3-((3S,4S)-4-amino-3-methyl-2-oxa-8-azaspiro[4.5]decan-8-yl)-6-(1-phenylcyclopropyl)pyrazin-2-yl)methanol] | –

Continued, compound first:

Row | SMILES | IC50 (SHP2) [nM] | other results
10 | N[C@@H]1c2ccccc2CC12CCN(c1nn3cc(C4CC4)nc3s1)CC2 [Comparative compound 2, reference compound] | – | IC50 ([1]; numeric values): 1810 nM; IC50 (leukemia MV-4-11 cell; numeric values): 454 nM
11 | CC(=O)N1CC(F)(F)c2c1cccc2C1(c2n[nH]c3nc(N4CCC5(CC4)Cc4ccccc4[C@H]5N)[nH]c(=O)c23)CC1 [Example 60, (S)-3-(1-(1-acetyl-3,3-difluoroindolin-4-yl)cyclopropyl)-6-(1-amino-1,3-dihydrospiro[indene-2,4′-piperidin]-1′-yl)-1,5-dihydro-4H-pyrazolo[3,4-d]pyrimidin-4-one] | ≤ 20 | –
12 | CCCCCc1cc2c(s1)CCC=C2c1n[nH]c2nc(N3CCC4(CC3)Cc3ccccc3[C@H]4N)[nH]c(=O)c12 [Example 118, (S)-6-(1-amino-1,3-dihydrospiro[indene-2,4′-piperidin]-1′-yl)-3-(2-pentyl-6,7-dihydrobenzo[b]thiophen-4-yl)-1,5-dihydro-4H-pyrazolo[3,4-d]pyrimidin-4-one] | 20 to 60 | –
13 | N[C@@H]1c2ccccc2CC12CCN(c1nc3[nH]nc(C4=CCCc5ccccc54)c3c(=O)[nH]1)CC2 [Example 111, (S)-6-(1-amino-1,3-dihydrospiro[indene-2,4′-piperidin]-1′-yl)-3-(3,4-dihydronaphthalen-1-yl)-1,5-dihydro-4H-pyrazolo[3,4-d]pyrimidin-4-one] | ≤ 20 | –
14 | N[C@@H]1c2ccccc2CC12CCN(c1nc3[nH]nc(C4(c5cccc(O)c5Cl)CC4)c3c(=O)[nH]1)CC2 [Example 50, (S)-6-(1-amino-1,3-dihydrospiro[indene-2,4′-piperidin]-1′-yl)-3-(1-(2-chloro-3-hydroxyphenyl)cyclopropyl)-1,5-dihydro-4H-pyrazolo[3,4-d]pyrimidin-4-one] | ≤ 20 | –
15 | N[C@@H]1c2ccccc2CC12CCN(c1nc3[nH]nc(C4(c5cnn(Cc6ccccc6)c5)CC4)c3c(=O)[nH]1)CC2 [Example 57, (S)-6-(1-amino-1,3-dihydrospiro[indene-2,4′-piperidin]-1′-yl)-3-(1-(1-benzyl-1H-pyrazol-4-yl)cyclopropyl)-1,5-dihydro-4H-pyrazolo[3,4-d]pyrimidin-4-one] | ≤ 20 | –
16 | N[C@@H]1c2ccccc2CC12CCN(c1nc3[nH]nc(C4(c5ccc6nccnc6c5)CC4)c3c(=O)[nH]1)CC2 [Example 32, (S)-6-(1-amino-1,3-dihydrospiro[indene-2,4′-piperidin]-1′-yl)-3-(1-(quinoxalin-6-yl)cyclopropyl)-1,5-diliydro-4H-pyrazolo[3,4-d]pyrimidin-4-one] | 20 to 60 | –
17 | N[C@@H]1c2ccccc2CC12CCN(c1nc3[nH]nc(C4=CCCc5occc54)c3c(=O)[nH]1)CC2 [Example 119, (S)-6-(1-amino-1,3-dihydrospiro[indene-2,4′-piperidin]-1′-yl)-3-(6,7-dihydrobenzofuran-4-yl)-1,5-dihydro-4H-pyrazolo[3,4-d]pyrimidin-4-one] | ≤ 20 | –
